Where a SMILES comes first, the peptide text is derived from it.
Legend:
[1] = target: T1, HER2:HER3 dimerization in transfected U2OS cells (Homo sapiens, UniProt P04626); experiment: Enzyme fragment complementation (PathHunter) assay; format: cell-based; conditions: in the presence of 0.3 µM NRG1
T1 construct: host or cells: U2OS
Method: A Pathhunter assay kit was obtained from DiscoverX, and enzyme fragment complementation assay was carried out. U2OS cells transfected with HER3:HER2 were used for the assay. After cells were attached to the wells, they were incubated with compound 18 and controls at different concentration in the presence of neuregulin-1 (NRG-1) at 0.3 µM concentration. After 24 h of incubation, reagents were added, and luminescence was measured and compared with a control without any compound. A plot of luminescence versus concentration was obtained to measure the dimerization of HER3:HER2 and its inhibition by compound 18.

[2] = system: SKBR-3 cells; experiment: TUNEL assay; format: cell-based; conditions: 5 and 10 µM
Method: Ten thousand SKBR-3 cells were added to each well of Lab-Tek® 8-chamber slides and incubated overnight for cell attachment. […] Cells were washed twice with cold PBS. Cell fixation was achieved using 10% buffered formalin followed by permeabilization of membranes using 0.2% Triton X-100 in PBS at room temperature. 100 µL of rTdT reaction mix containing biotinylated nucleotide mix was added. The slide was placed in a humidity chamber and incubated for 60 min at 37°C. With the addition of dilute saline-sodium citrate (SSC) solution (20X provided with the kit diluted to 2X), the reaction was stopped. Three PBS washes were made to ensure the removal of remaining unincorporated biotinylated nucleotides on the slide. Treatment with 0.3% hydrogen peroxide was done to block the endogenous peroxidases in the cells. The slide was incubated for 30 min at room temperature with dilute streptavidin HRP solution (1:500 in PBS). Diaminobenzidine (DAB) was added to stain the slide. After drying, DAPI was used to counterstain the nuclei, and images were obtained using a Nikon Eclipse TS100. The number of cells that had undergone apoptosis was counted and quantified.

[3] = system: phosphorylated HER2 in Calu-3 cells; experiment: Western blot of phosphorylated HER2; format: cell-based
Method: (§1) BT-474, Calu-3, and SKOV-3 cells were treated with compounds at 1 µM and lapatinib (positive control) at 0.07 µM. Cells without any treatment and cells treated with control compound were employed as negative controls in these studies. Cells were incubated for 36 h, washed and trypsinized. The cell lysate was prepared using cell lysis buffer containing protease inhibitor and phosphatase inhibitor. The protein concentration in each sample was determined using Bradford’s assay. 40 μg of protein from each sample was loaded on Novex® 4–20% tris-glycine gels and western blot analysis was carried out as described in our previous publication. Antibodies for the detection of total HER2 protein (t-HER2) and phosphorylated HER2 protein (p-HER2) were used at 1:3000 dilutions. After addition of the substrate and enhancer solutions from a Super Signal-enhanced chemiluminescence kit (Pierce, Rockford, IL) to the membrane, the images were captured using C-Digit Blot Scanner (LI-COR Biotechnology, Lincoln, NE). A representative Western blot image was used for the final presentation.

[4] = system: phosphorylated HER2 in BT-474 cells; experiment: Western blot of phosphorylated HER2; format: cell-based; conditions: 0.5 and 1 µM
Method: as §1

[5] = system: MCF-7 cells; experiment: Antiproliferative activity (CellTiter-Glo); format: cell-based
Description: (§2) Erlotinib was from Sigma (Sigma-Aldrich Chemie GmbH).

[6] = system: MCF-10A normal breast epithelial cell line; experiment: Antiproliferative activity (CellTiter-Glo); format: cell-based
Description: as §2

[7] = system: NCI-H1975 cells (EGFR L858R/T790M)
Method: Antiproliferative activity was measured by CellTiter-Glo®, [49] a luminescence-based cell viability assay. In a 96-well plate, 1 × 10^4 cells/well were seeded and incubated overnight at 37°C and 5% CO2. Stock solutions of peptidomimetics were prepared by dissolving 1.5 mg/mL of compounds in DMSO. Stock solution of the compounds were diluted using the serum-free medium to prepare solutions of different concentrations of compounds. […] As controls, cells treated with 1% sodium dodecyl sulfate and 1% dimethyl sulfoxide were used. At the end of the experiment, CellTiter-Glo® reagent was added, and luminescence was measured by a plate reader. A dose response curve was generated using luminescence vs concentration of compounds and IC50 values were obtained using Prism® (GraphPad Software, La Jolla, CA). Experiments were repeated at least three times to obtain standard deviation values.

[8] = target: T2, HER2:HER3 heterodimer in SKBR-3 cells (Homo sapiens, UniProt P04626); experiment: Proximity ligation assay (PLA); format: cell-based; conditions: 0.5 and 1 µM
T2 construct: indicating HER2:HER3 dimerization in SKBR-3 cells; host or cells: SKBR-3
T2 sequence (P04626 23-1255, one chain of several): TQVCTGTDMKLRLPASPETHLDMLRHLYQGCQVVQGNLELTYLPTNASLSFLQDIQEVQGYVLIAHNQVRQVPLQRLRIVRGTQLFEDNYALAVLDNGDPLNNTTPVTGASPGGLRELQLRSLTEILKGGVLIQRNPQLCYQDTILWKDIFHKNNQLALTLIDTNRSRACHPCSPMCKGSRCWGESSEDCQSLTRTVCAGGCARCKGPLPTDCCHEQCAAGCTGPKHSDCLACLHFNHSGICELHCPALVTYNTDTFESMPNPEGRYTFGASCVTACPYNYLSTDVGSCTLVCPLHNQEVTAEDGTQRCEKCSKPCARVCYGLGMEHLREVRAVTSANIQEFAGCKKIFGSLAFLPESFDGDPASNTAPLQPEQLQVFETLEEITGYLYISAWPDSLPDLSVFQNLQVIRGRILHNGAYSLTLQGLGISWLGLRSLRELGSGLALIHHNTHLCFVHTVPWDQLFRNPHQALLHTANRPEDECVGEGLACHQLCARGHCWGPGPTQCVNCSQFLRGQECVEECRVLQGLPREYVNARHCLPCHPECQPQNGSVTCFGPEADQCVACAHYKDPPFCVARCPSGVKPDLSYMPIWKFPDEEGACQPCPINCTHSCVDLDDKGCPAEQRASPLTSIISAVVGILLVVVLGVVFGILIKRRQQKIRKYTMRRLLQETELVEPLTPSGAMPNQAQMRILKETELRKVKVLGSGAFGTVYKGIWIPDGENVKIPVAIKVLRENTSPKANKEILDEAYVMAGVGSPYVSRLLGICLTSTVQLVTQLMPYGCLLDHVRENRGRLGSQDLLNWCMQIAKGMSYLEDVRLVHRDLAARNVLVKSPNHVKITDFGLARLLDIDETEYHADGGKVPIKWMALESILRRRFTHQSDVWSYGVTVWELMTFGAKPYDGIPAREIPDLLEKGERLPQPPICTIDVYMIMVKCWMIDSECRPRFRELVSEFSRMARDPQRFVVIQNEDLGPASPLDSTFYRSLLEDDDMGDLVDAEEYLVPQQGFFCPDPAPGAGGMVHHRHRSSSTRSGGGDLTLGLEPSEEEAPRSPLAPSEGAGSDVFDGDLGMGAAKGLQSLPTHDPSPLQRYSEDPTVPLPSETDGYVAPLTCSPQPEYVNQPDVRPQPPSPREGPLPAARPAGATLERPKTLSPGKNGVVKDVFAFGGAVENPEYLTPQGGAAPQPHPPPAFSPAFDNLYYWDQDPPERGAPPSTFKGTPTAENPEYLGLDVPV
Method: (§3) Proximity ligation assay was performed as described previously. […] Fixed cells were used for PLA assay. Cells were incubated with primary antibodies for 24 h and washed, and secondary antibodies PLA+ and PLA− were added. After incubation and washing, PLA detection reagent was added, and the cells were covered with a glass plate after mounting medium was added. Slides were viewed using an inverted microscope and a multiphoton microscope. Images were obtained at 40 and 60X.

[9] = target: T3, EGFR:HER2 heterodimer in SKBR-3 cells (Homo sapiens, UniProt P04626); experiment: Proximity ligation assay (PLA); format: cell-based; conditions: 0.5 and 1 µM
T3 construct: we probed for HER2:EGFR dimers with PLA probes in SKBR-3 cells; host or cells: SKBR-3
T3 sequence (P04626 23-1255, one chain of several): as above
Method: as §3

[10] = target: T4, HER2 protein on BT-474 cells (Homo sapiens, UniProt P04626); experiment: Competitive binding assay with FITC-compound 5; conditions: 0.1 to 50 µM with 50 µM FITC-compound 5, BT-474 cells
T4 construct: incubated with HER2 expressing BT-474 cells lines along with fixed amount of FITC-compound 5; host or cells: BT-474
T4 sequence (P04626 23-1255): as the sequence (P04626 23-1255, one chain of several) above
Method: BT-474 cell lines were coated on 96 well plates and after 24 hrs cells were washed. Varying amounts of compound 18 (0.1 to 50 µM) was incubated with HER2 expressing BT-474 cells lines along with fixed amount of FITC-compound 5 (50 µM). […] Readings were in triplicate. A graph of relative fluorescence with respect to concentration of compound 18 was plotted. As control fluorescence from FITC-compound 5 and cells without any treatment were used.

[11] = system: SKOV-3 cells; conditions: read-out: IC50 SKOV-3(+); HER2-overexpressing ovarian cancer cells, 72 h
Method: Cellular assays were performed using BT-474, SKBR-3, Calu-3, MCF-7, and MCF-10A cells (ATCC). Antiproliferative activity was measured by CellTiter-Glo®, [49] a luminescence-based cell viability assay. In a 96-well plate, 1 × 10^4 cells/well were seeded and incubated overnight at 37°C and 5% CO2. Stock solutions of peptidomimetics were prepared by dissolving 1.5 mg/mL of compounds in DMSO. Stock solution of the compounds were diluted using the serum-free medium to prepare solutions of different concentrations of compounds. Compounds in the medium were added to the wells in triplicate and incubated for 72 h. As controls, cells treated with 1% sodium dodecyl sulfate and 1% dimethyl sulfoxide were used. At the end of the experiment, CellTiter-Glo® reagent was added, and luminescence was measured by a plate reader. A dose response curve was generated using luminescence vs concentration of compounds and IC50 values were obtained using Prism® (GraphPad Software, La Jolla, CA). Experiments were repeated at least three times to obtain standard deviation values.

T1 sequence (P04626 23-1255): as the sequence (P04626 23-1255, one chain of several) above

In the case of N=C(N)NCCC[C@@H]1NC(=O)[C@H]2CCCN2C(=O)[C@@H]2CCCN2C(=O)[C@H](CCCNC(=N)N)NC(=O)C[C@H](c2cccc3ccccc23)NC(=O)[C@H](Cc2ccccc2)NC(=O)[C@H](CC(=O)O)NC(=O)[C@H](CC(=O)O)NC(=O)[C@H](Cc2ccccc2)NC(=O)C[C@H](c2cccc3ccccc23)NC1=O [compound 18, Cyclo(1,10)P^1p^2R^3(R-Anapa)^4F^5D^6D^7F^8(R-Anapa)^9R^10] (HELM PEPTIDE1{P.[dP].R.[O=C(C[C@@H](N[*:1])c1cccc2ccccc12)[*:2]].F.D.D.F.[O=C(C[C@@H](N[*:1])c1cccc2ccccc12)[*:2]].R}$PEPTIDE1,PEPTIDE1,1:R1-10:R2$$$V2.0), the “Inhibition of HER2:HER3 dimerization (PathHunter)” value [1] is reported as “dimerization of HER2:HER3 is inhibited in a concentration-dependent manner”, the “Apoptosis (TUNEL staining)” value [2] is reported as “positive staining for apoptosis” and the “Phosphorylation of HER2 (Western blot)” value [3] is reported as “decreases the phosphorylation of HER2 in a concentration-dependent manner”. For the same compound, the “Phosphorylation of HER2 (Western blot)” value [4] was “decreases the phosphorylation of HER2 in a concentration-dependent manner”, the “Synergistic effect with erlotinib (isobologram)” value ([5]; MCF-7, compound 18 plus erlotinib) was “no synergistic effect” and the IC50 ([5]; breast cancer cells that do not overexpress HER2, 72 h) was over 50 µM. The “Activity in MCF-10A relative to Calu-3 (times less)” value ([6]; IC50 MCF-10A vs Calu-3) was about 2000 times, the “Activity in MCF-10A relative to SKBR-3 (times less)” value ([6]; IC50 MCF-10A vs SKBR-3) was about 200 times and the “Synergistic effect with erlotinib (isobologram)” value ([7]; NCI-H1975, compound 18 plus erlotinib) was “synergistic effect”. The IC50 ([7]; read-out: IC50 in NCI-H1975, EGFR L858R/T790M lung cancer cell line) was 4.85 µM, the “Inhibition of HER2:HER3 heterodimerization (PLA)” value [8] was “inhibits heterodimerization in a concentration-dependent manner” and the “Inhibition of EGFR:HER2 heterodimerization (PLA)” value [9] was “inhibits both EGFR:HER2 and HER2:HER3 dimerization”. The “Competition with FITC-compound 5 (cell fluorescence)” value [10] was “decrease in the fluorescence intensity of cells” and the IC50 [11] was 0.853 ± 0.102 µM.

Reference: PMC5650337, “A peptidomimetic with a chiral switch is an inhibitor of epidermal growth factor receptor heterodimerization” (Oncotarget, 2017)
